Experimental data published in the Kinase Knowledgebase extract (Sharma et al. 2016).

These molecules were tested against MAPK14 (UniProt Q16539) (assay: Inhibition of MAPK14 Kinase Activity).
Chain of MAPK14 (Q16539 whole entry, looked up): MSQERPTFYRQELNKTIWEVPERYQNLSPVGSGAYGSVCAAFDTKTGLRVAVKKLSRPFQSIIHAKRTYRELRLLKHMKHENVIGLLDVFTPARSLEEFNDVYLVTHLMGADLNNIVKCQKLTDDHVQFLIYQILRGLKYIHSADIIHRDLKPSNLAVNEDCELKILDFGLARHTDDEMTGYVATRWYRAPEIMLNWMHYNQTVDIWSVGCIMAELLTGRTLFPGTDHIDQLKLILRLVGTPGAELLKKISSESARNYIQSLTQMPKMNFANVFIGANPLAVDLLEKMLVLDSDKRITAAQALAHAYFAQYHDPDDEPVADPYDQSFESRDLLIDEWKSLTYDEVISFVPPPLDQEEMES
For `Cc1cccc(-c2nn3c(c2-c2ccc(F)cc2)CC[C@@H]3CC#N)n1`, the IC50 was < 20 µM. With `CN(C)CC(=O)Nc1ccc2c(-c3c(-c4ccccn4)nn4c3CCC4)ccnc2c1` the IC50 was < 20 µM. `Cc1cccc(-c2nn3c(c2-c2ccnc4ccc(C(=O)O)cc24)CCC3)n1` was tested, and the IC50 was < 20 µM. In the case of `COC(=O)c1ccc2c(-c3c(-c4ccccn4)nn4c3CCC4)ccnc2c1`, the IC50 is reported as < 20 µM. `CNC(=O)c1ccc2c(-c3c(-c4ccccn4)nn4c3CCC4)ccnc2c1` was tested, and the IC50 was < 20 µM. With `Cc1cccc(-c2nn3c(c2-c2ccnc4ccc(-c5ccc(F)cc5)cc24)CCC3)n1` the IC50 was < 20 µM. For `CSc1ccc2nccc(-c3c(-c4ccccn4)nn4c3CCC4)c2c1`, the IC50 was < 20 µM. With `CN1CCN(CCCOc2ccc3c(-c4c(-c5ccccn5)nn5c4CCC5)ccnc3c2)CC1` the IC50 was < 20 µM. For `c1ccc(-c2nn3c(c2-c2ccc4ccccc4c2)CCC3)nc1`, the IC50 was < 20 µM. In the case of `COc1ccc2c(-c3c(-c4ccccn4)nn4c3CCC4)ccnc2c1`, the IC50 is reported as < 20 µM. With `c1ccc(-c2nn3c(c2-c2ccnc4cc(OCCCn5ccnc5)ccc24)CCC3)nc1` the IC50 was < 20 µM. `O=C(NCCc1c[nH]cn1)c1ccc2c(-c3c(-c4ccccn4)nn4c3CCC4)ccnc2c1` was tested, and the IC50 was < 20 µM. `Cc1cccc(-c2nn3c(c2-c2ccc4c(c2)OCO4)CCC3)n1` was tested, and the IC50 was < 20 µM. `Fc1ccc(-c2nn3c(c2-c2ccnc4ccccc24)CCC3)cc1` was tested, and the IC50 was < 20 µM. In the case of `Cc1cccc(-c2nn3c(c2-c2ccnc4cc(N)ccc24)CCC3)n1`, the IC50 is reported as < 20 µM. For `OCCCSc1ccc2c(-c3c(-c4ccccn4)nn4c3CCC4)ccnc2c1`, the IC50 was < 20 µM.
